According to ChEMBL document CHEMBL1201862, “PubChem BioAssay data set” (2004):
The source made the active and inactive calls.

How the values were obtained:
[1] = target: T1, Rac GTPase-activating protein 1 (Homo sapiens, UniProt Q9H0H5); experiment: MgcRacGAP GTPase-activating activity inhibitors, confirmation, biochemical, ADP Hunter fluorescence, primary and confirmatory (AID 624330); type: functional
T1 sequence (Q9H0H5 whole entry): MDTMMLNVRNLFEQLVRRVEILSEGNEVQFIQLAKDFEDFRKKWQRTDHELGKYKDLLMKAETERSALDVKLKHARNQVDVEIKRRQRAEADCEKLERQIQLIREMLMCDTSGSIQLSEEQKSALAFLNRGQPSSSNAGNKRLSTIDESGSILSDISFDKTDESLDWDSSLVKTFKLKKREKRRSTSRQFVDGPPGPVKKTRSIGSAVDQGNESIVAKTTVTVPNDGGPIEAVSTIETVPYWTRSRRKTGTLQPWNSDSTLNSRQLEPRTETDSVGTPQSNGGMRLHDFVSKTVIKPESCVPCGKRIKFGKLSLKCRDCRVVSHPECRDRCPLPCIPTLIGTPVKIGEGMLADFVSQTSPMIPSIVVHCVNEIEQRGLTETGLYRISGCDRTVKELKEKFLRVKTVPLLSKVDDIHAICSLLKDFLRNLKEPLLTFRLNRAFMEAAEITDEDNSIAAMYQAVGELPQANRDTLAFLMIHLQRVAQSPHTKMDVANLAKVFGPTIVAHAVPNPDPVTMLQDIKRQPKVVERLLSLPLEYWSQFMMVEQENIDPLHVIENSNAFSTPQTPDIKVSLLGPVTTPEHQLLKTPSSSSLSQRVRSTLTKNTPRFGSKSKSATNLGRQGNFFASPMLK

[2] = target: T2, Replicative DNA helicase DnaB (Mycobacterium tuberculosis, UniProt P9WMR3); experiment: DnaB intein splicing inhibitors, dose response, biochemical, cell-free fluorescence (AID 449749); type: functional
T2 sequence (P9WMR3 whole entry): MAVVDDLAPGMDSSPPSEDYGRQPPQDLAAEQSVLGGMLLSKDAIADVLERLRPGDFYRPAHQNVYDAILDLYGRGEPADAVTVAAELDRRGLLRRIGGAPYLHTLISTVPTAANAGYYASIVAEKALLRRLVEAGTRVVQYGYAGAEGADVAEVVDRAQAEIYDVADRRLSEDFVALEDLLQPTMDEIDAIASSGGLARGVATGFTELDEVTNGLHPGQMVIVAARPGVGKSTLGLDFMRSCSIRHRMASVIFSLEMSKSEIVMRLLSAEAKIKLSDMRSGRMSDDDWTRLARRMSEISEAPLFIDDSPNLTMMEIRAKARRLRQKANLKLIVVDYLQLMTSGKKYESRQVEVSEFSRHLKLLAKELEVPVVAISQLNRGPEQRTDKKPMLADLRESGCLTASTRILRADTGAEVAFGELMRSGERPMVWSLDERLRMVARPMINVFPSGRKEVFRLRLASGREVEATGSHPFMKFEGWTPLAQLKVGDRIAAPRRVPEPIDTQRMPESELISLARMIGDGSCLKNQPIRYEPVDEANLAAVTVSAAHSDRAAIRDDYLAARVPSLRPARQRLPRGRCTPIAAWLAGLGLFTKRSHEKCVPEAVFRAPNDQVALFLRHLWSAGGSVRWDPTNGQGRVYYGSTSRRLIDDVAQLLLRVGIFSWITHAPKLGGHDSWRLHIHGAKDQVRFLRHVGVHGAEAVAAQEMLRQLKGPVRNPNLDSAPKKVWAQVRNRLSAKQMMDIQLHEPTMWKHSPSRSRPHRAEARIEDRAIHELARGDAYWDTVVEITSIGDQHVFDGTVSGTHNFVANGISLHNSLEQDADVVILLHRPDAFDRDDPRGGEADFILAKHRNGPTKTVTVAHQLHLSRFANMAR

Protein RecA = target: T3, Protein RecA (Mycobacterium tuberculosis, UniProt P9WHJ3); experiment: Fluorescence Cell-Free Homogeneous Dose Retest to Identify Inhibitors of RecA-Intein Splicing Activity. [Related pubchem assays (depositor defined):AID2097, AID2223, AID489010, AID492950]; type: functional
T3 sequence (P9WHJ3 whole entry): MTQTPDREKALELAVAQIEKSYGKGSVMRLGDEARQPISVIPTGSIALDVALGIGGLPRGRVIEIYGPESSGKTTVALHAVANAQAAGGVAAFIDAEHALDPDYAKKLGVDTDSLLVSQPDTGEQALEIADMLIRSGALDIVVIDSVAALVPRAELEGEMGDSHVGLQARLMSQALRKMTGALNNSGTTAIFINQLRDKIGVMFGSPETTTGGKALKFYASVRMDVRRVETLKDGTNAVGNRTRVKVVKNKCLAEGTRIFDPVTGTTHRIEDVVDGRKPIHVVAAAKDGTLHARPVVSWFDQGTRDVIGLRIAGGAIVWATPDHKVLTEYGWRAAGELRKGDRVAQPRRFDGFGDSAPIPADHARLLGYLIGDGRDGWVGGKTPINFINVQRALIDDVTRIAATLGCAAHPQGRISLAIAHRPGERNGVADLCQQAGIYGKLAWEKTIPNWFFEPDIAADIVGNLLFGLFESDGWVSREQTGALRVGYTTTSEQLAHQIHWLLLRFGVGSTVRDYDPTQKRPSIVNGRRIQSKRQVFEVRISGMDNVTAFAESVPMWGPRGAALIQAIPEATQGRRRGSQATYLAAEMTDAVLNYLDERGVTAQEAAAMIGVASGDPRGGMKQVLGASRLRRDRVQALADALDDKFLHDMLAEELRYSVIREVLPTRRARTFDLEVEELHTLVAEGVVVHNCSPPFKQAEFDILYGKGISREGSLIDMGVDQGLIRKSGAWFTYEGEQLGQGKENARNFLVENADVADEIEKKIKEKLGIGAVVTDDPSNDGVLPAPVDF

Cytochrome P450 3A4 = Cytochrome P450 3A4 (Homo sapiens, UniProt P08684);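 also: CYP3A4 tested as one member of a cytochrome P450 panel screen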
Chain of Cytochrome P450 3A4 (P08684 whole entry): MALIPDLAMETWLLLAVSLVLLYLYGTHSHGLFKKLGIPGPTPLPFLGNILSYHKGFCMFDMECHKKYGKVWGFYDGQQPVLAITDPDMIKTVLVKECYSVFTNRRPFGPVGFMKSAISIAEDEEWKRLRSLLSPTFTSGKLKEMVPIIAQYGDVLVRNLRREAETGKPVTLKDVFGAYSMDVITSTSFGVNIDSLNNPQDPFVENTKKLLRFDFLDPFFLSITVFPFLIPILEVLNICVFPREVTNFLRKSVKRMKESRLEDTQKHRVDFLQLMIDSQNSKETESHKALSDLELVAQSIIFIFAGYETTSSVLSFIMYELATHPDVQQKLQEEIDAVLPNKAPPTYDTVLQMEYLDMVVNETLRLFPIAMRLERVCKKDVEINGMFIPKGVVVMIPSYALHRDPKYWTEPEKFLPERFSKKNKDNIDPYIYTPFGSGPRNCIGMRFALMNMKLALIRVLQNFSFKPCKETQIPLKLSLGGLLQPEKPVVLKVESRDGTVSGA

[3] = target: T4, Corticotropin-releasing factor receptor 2/Corticotropin-releasing factor-binding protein (Homo sapiens, UniProt P24387+Q13324); experiment: activators of CRF receptor 2 with binding protein – uHTS hits, confirmation (AID 602473); type: functional; details: read-out: EC50_Mean
T4 sequence (Q13324 whole entry): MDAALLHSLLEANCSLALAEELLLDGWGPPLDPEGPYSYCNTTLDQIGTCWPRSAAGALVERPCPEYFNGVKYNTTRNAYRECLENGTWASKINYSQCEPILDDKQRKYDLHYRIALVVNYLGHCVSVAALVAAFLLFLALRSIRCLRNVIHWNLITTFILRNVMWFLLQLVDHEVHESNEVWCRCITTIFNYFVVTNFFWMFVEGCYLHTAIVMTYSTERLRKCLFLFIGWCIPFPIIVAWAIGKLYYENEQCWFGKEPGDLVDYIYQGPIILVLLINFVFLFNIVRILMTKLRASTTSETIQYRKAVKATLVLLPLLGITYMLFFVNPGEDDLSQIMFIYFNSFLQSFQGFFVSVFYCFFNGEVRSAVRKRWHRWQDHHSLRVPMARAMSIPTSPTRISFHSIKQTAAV
T4 sequence (P24387 whole entry): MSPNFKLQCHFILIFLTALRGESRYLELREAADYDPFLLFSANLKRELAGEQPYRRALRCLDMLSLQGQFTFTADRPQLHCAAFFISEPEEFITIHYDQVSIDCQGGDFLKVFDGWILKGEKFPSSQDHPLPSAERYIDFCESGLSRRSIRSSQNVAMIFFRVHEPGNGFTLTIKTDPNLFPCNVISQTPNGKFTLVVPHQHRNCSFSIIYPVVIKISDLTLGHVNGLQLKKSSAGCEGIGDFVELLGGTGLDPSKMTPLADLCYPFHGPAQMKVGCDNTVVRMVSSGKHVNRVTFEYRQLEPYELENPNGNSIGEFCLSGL

[4] = test system: Streptococcus sp. 'group A'; experiment: growth inhibition of control SK(-) GAS strain, dose response, counter-screen for streptokinase expression inhibitor project, luminescence, kanamycin, BacTiterGlo, confirmation (AID 1900); type: functional, organism-based
Streptokinase A = target: T5, Streptokinase A (Streptococcus pyogenes serotype M1, UniProt P10520); experiment: S. pyogenes streptokinase expression inhibitors, potency, dose response, plasminogen activation absorbance, OD405 (AID 1914); type: functional, Streptococcus pyogenes M1 GAS;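 also: secreted streptokinase activity via plasminogen activation per viability signal from cell pellet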
T5 sequence (P10520 whole entry): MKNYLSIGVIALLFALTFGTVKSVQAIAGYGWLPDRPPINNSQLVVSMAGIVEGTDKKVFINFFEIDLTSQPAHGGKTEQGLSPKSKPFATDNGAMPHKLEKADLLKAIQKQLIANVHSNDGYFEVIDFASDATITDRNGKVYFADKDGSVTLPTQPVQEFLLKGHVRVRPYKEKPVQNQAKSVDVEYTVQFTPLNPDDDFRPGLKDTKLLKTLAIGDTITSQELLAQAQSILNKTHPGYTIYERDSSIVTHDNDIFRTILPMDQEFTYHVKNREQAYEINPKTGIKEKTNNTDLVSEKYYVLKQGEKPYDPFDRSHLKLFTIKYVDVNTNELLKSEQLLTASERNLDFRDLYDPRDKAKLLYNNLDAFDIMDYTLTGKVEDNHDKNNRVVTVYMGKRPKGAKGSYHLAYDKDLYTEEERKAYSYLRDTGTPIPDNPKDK

Streptococcus = experiment: Group A Streptococcus viability loss, dose response, counter-screen for streptokinase expression inhibitor project, luminescence, BacTiterGlo (AID 1915); type: functional, organism-based;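 also: potency for reduction of bacterial viability or growth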
Cytochrome P450 2C9 = Cytochrome P450 2C9 (Homo sapiens, UniProt P11712)
Chain of Cytochrome P450 2C9 (P11712 whole entry): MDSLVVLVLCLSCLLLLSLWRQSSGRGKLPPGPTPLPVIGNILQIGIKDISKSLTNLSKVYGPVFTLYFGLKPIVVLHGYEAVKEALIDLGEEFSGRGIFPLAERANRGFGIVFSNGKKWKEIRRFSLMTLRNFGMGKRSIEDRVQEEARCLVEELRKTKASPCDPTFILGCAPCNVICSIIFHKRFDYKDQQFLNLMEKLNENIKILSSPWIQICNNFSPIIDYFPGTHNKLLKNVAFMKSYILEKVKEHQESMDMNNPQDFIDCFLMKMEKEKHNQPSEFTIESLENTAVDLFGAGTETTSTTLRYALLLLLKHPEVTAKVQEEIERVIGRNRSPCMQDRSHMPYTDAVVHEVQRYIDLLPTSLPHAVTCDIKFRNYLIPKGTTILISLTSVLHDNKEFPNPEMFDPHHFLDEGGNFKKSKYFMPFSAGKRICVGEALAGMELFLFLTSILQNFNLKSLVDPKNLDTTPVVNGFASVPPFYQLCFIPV

SMILES: COc1ccc(CN2CCN(CCCCOc3ccc(Cl)cc3)CC2)c(OC)c1OC
- IC50 [1]: 71.4 µM (active)

SMILES: Cc1cc(-c2[nH]nc3c2C(c2ccsc2)C(C#N)=C(N)O3)c(C)s1 (centres undefined)
- AC50 [2]: 3.47 µM (active)
- EC50 (Protein RecA): 1.2 µM (active)

SMILES: CCCc1n[nH]c2c1C(c1c[nH]nc1-c1ccc(F)cc1)C(C#N)=C(N)O2 (centres undefined)
- AC50 [2]: 2.08 µM (active)
- EC50 (Protein RecA): 1.54 µM (active)

SMILES: CC(Sc1nnc(Cc2cccs2)n1C1CCCCC1)C(N)=O (centres undefined)
- AC50 (Cytochrome P450 3A4): 3.98 µM (inconclusive)

SMILES: Cc1cccc(NC(=O)C2CC2c2ccccc2)c1C (centres undefined)
- EC50 [3]: > 53 µM (inactive)

SMILES: CCN(CC(=O)NCc1ccc(F)cc1)C(=O)CN1CCN(c2ccc(OC)cc2)CC1
- IC50 [1]: 42.3 µM (active)

SMILES: Cc1cc(=O)n(CCCc2ccccc2)[nH]1
- AC50 [2]: 2.4 µM (active)
- EC50 (Protein RecA): 2.23 µM (active)

SMILES: OCCN1CCN(C(S)=Nc2cccc(C(F)(F)F)c2)CC1
- IC50 [1]: 126 µM (active)

SMILES: CCc1ccc(C2C(C#N)=C(N)C(C#N)(C#N)C3=CCC(C(C)(C)C)CC32)cc1 (centres undefined)
- EC50 [4]: 4.85 µM (active)
- EC50 (Streptokinase A): 5.84 µM (active)
- EC50 (Streptococcus): > 150 µM (not active)
- AC50 [2]: > 120 µM (inactive)
- EC50 (Protein RecA): 3 µM (active)

SMILES: COc1ccc(/C=C2/CC/C(=C\c3ccc(OC)c(OC)c3OC)C2=O)c(OC)c1OC
- EC50 [3]: > 53 µM (inactive)

SMILES: COc1ccc(NC(=O)C23CC4CC(C2)CC(n2cnc(Br)n2)(C4)C3)c(C)c1
- AC50 (Cytochrome P450 3A4): 14.1 µM (inconclusive)

SMILES: COc1cc(/C=C/C(=O)OCC(=O)N2CCCc3ccccc32)ccc1O
- IC50 [1]: 36.1 µM (active)

SMILES: O=c1c2ccccc2nc2n1C(CSc1ccc(F)cc1)CN2 (centres undefined)
- AC50 (Cytochrome P450 3A4): 31.6 µM (inconclusive)
- AC50 (Cytochrome P450 2C9): 39.8 µM (inconclusive)

SMILES: O=C(Oc1ccccc1)N1CCC[C@@]2(CCN(c3ncccn3)C2)C1
- AC50 (Cytochrome P450 3A4): 15.8 µM (inconclusive)

SMILES: CCCCC/C=C\C[C@H](O)/C=C\c1cccc(C[C@H](O)CCCCO)n1
- AC50 (Cytochrome P450 3A4): 6.31 µM (inconclusive)
- AC50 (Cytochrome P450 2C9): 20 µM (inconclusive)
